Test [1] has as its target T1, Adenosine receptor A3 (Homo sapiens) (UniProt P0DMS8).
T1 sequence (whole entry): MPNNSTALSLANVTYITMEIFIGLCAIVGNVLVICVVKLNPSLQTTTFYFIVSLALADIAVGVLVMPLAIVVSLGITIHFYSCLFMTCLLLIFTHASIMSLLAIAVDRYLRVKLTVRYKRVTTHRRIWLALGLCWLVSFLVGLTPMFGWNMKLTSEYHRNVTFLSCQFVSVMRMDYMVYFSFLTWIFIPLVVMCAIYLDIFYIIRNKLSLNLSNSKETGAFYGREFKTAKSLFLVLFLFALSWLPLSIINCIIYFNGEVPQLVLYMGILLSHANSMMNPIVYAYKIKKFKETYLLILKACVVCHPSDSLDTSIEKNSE
Briefly: Inhibition of human recombinant A3 receptor at 10 uM by radioligand binding assay.

Test [2] has as its target T2, Type-1 angiotensin II receptor (Homo sapiens) (UniProt P30556).
T2 sequence (whole entry): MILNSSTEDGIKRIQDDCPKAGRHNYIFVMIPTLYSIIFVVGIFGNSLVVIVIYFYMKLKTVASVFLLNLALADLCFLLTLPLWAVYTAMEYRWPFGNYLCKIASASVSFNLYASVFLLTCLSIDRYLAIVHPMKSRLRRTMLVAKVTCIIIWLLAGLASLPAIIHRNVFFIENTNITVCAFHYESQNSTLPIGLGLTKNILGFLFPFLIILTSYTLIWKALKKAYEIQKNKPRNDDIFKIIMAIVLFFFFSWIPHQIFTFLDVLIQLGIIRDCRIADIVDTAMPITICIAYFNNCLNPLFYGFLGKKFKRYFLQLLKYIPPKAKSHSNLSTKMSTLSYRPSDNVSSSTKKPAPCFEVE
Briefly: Inhibition of human recombinant AT1 receptor at 10 uM by radioligand binding assay.

Test [3] concerns the target Histamine H1 receptor (Homo sapiens) (UniProt P35367). The test is described as follows: Inhibition of human recombinant H1 receptor at 10 uM by radioligand binding assay.
The target in test [4] is Histamine H2 receptor (Homo sapiens) (UniProt P25021). The test is described as follows: Inhibition of human recombinant H2 receptor at 10 uM by radioligand binding assay.
Sequence of Histamine H2 receptor (Homo sapiens) (P25021 whole entry): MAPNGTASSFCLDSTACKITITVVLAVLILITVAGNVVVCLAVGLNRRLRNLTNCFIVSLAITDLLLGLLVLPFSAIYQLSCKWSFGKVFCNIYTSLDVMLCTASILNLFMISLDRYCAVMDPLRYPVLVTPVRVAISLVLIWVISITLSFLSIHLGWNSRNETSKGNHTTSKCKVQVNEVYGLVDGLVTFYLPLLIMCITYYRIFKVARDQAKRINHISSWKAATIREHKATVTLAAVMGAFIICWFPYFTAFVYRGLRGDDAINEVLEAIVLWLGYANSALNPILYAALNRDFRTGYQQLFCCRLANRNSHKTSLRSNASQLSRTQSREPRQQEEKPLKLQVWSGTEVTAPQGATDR
Test [5] addresses T3, Muscarinic acetylcholine receptor M1 (Homo sapiens) (UniProt P11229).
T3 sequence (whole entry): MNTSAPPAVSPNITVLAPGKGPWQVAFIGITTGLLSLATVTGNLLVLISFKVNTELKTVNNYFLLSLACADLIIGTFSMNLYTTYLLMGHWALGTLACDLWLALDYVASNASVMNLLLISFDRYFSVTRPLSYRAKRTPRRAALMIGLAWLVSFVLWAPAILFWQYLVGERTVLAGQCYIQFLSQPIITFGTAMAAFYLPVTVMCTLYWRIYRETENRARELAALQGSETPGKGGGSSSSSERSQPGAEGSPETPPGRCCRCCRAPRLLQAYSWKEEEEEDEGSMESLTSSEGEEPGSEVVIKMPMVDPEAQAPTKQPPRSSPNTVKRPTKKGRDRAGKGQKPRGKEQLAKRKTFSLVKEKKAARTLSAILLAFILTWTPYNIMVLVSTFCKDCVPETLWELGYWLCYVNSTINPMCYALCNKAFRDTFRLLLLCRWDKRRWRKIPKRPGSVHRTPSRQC
Briefly: Inhibition of human recombinant M1 receptor at 10 uM by radioligand binding assay.

The target of test [6] is T4, Substance-K receptor (Homo sapiens) (UniProt P21452).
T4 sequence (whole entry): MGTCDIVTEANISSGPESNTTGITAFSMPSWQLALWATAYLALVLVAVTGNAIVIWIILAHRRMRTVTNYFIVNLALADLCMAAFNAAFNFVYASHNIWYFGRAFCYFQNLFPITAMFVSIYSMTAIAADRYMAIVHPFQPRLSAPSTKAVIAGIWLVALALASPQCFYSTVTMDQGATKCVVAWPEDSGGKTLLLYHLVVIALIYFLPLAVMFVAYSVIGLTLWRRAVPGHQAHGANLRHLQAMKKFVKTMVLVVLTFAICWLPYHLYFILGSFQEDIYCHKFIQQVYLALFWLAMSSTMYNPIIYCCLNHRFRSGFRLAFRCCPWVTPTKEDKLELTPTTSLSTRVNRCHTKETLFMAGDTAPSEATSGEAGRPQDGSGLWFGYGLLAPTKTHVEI
Briefly: Inhibition of human recombinant NK2 receptor at 10 uM by radioligand binding assay.

The target of test [7] is T5, Neuromedin-K receptor (Homo sapiens) (UniProt P29371).
T5 sequence (whole entry): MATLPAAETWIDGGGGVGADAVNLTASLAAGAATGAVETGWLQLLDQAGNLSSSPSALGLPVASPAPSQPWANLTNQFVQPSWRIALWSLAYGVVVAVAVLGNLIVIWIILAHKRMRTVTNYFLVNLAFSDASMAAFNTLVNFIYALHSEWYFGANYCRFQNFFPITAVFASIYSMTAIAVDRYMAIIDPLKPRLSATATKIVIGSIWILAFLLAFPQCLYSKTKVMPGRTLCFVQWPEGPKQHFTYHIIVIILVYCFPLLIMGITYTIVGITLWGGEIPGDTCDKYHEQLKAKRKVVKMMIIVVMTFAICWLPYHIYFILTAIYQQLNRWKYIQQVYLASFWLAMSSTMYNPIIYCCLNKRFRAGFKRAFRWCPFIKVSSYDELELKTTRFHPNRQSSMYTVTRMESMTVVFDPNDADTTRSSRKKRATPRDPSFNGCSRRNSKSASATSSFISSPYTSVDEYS
Briefly: Inhibition of human recombinant NK3 receptor at 10 uM by radioligand binding assay.

The species named for test [8] is Homo sapiens. Briefly: Inhibition of human recombinant Dop delta2 receptor at 10 uM by radioligand binding assay.
Test [9] concerns the target Kappa-type opioid receptor (Homo sapiens) (UniProt P41145). The test is described as follows: Inhibition of human recombinant KOP receptor at 10 uM by radioligand binding assay.
Test [10] deals with 5-hydroxytryptamine receptor 5A (Homo sapiens) (UniProt P47898). The test is described as follows: Inhibition of human recombinant 5HT5A receptor at 10 uM by radioligand binding assay.
Sequence of 5-hydroxytryptamine receptor 5A (Homo sapiens) (P47898 whole entry): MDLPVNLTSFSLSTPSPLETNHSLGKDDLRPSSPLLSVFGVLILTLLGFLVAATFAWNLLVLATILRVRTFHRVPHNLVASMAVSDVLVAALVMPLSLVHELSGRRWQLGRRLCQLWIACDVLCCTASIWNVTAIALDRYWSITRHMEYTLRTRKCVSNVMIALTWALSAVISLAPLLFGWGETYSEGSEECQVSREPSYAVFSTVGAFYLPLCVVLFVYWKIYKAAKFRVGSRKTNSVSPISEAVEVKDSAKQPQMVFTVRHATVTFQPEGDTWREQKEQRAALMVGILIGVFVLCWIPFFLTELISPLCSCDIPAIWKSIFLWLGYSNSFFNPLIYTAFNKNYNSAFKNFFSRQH
Test [11] concerns the target Vasopressin V1a receptor (Homo sapiens) (UniProt P37288). The test is described as follows: Inhibition of human recombinant V1a receptor at 10 uM by radioligand binding assay.
In test [12] the target is Sodium-dependent noradrenaline transporter (Homo sapiens) (UniProt P23975). Briefly: Inhibition of human recombinant NET at 10 uM by radioligand binding assay.
Sequence of Sodium-dependent noradrenaline transporter (Homo sapiens) (P23975 whole entry): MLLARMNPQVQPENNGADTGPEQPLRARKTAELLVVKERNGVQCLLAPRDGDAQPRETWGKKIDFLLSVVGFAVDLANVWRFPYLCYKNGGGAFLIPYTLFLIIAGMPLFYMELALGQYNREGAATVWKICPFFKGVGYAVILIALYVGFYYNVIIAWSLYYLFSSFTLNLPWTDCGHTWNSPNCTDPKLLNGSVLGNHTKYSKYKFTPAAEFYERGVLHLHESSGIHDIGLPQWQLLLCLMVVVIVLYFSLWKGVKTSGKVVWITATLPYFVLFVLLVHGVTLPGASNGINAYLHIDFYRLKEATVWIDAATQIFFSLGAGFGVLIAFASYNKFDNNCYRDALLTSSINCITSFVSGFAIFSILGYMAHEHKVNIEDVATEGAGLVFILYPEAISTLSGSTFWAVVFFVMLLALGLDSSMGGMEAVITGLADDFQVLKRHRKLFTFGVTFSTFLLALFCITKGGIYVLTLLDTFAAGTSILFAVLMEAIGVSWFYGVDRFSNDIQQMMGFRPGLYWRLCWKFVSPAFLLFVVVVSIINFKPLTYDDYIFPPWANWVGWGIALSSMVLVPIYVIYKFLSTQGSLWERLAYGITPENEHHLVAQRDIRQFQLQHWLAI
Test [13] has as its system 5-hydroxytryptamine receptor 2A. Briefly: Inhibition of human recombinant 5HT2A receptor at 10 uM by radioligand binding assay.

The values that follow come from ChEMBL document CHEMBL1781986, “Structure-activity relationships of pyrrole based S-nitrosoglutathione reductase inhibitors: pyrrole regioisomers and propionic acid replacement” (Bioorg Med Chem Lett, 2011).

Active and inactive are the calls of the source. No cut-off for these calls is given here.

Sequence of Histamine H1 receptor (Homo sapiens) (P35367 whole entry): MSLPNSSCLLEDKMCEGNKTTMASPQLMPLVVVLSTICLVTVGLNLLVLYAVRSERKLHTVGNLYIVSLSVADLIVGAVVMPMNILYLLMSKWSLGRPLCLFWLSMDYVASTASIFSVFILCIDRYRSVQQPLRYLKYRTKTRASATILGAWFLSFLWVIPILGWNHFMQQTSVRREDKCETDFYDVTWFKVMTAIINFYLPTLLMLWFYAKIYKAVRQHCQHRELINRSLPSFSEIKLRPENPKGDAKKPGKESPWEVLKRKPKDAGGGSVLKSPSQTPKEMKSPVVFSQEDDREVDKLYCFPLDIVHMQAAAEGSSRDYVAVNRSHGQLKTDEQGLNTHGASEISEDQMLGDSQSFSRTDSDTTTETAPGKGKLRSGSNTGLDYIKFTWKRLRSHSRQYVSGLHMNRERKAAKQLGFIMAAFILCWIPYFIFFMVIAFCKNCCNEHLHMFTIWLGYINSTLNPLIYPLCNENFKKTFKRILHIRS
Sequence of Kappa-type opioid receptor (Homo sapiens) (P41145 whole entry): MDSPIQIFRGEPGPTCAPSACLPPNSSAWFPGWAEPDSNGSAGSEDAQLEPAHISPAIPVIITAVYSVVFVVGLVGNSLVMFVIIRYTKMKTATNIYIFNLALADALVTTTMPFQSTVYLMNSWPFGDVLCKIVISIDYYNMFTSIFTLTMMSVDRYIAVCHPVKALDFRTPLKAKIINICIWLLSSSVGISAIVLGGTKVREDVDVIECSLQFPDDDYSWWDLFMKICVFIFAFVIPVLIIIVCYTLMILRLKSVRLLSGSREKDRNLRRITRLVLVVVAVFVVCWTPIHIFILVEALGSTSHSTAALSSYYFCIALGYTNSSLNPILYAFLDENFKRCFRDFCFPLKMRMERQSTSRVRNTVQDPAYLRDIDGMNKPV
Sequence of Vasopressin V1a receptor (Homo sapiens) (P37288 whole entry, looked up): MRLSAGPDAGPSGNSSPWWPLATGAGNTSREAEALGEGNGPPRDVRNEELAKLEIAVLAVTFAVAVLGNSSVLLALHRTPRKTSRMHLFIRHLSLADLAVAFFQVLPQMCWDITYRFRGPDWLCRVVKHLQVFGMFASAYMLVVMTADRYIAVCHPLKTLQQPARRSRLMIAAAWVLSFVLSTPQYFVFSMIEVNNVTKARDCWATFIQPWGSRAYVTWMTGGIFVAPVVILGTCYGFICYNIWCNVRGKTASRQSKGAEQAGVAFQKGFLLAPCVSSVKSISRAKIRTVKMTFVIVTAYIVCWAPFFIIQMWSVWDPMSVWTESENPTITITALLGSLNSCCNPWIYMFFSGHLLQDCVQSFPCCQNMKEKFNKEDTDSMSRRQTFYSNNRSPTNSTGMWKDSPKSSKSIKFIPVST

`COc1ccc(-c2ccn(-c3ccc(C(=O)O)c(O)c3)c2-c2ccc(C(N)=O)cc2C)cc1`: the inhibition result in [1], in test [2], in test [3], in test [4], in test [5] and in test [6] was “Active” each time. Moreover, the inhibition entry in test [7], in test [8], in test [9], in [10], in test [11] and in [12] was “Active” throughout. In test [13], the inhibition entry is “Active”.

Take `Cc1cc(C(N)=O)ccc1-c1c(CCC(=O)O)ccn1-c1ccc(-n2ccnc2)cc1`: the inhibition entry in test [1], in test [2], in [3], in test [4], in [5] and in test [6] was “inactive” throughout. Moreover, the inhibition entry in test [7], in test [9], in test [10], in test [11], in test [12] and in test [13] was “inactive” in each case. Further, in [8], the inhibition result was “Active”.

Regarding `Cc1cc(C(N)=O)ccc1-n1c(CCC(=O)O)ccc1-c1ccc(-n2ccnc2)cc1` [N6022], the inhibition entry in [1], in test [2], in test [3], in [4], in [5] and in test [6] was “inactive” throughout. The inhibition entry in test [7], in test [9], in [10], in test [11] and in test [12] was “inactive” in each case. Also, the inhibition entry in test [8] is “Active”.

Take `COc1ccc(-c2ccn(-c3ccc(O)c([N+](=O)[O-])c3)c2-c2ccc(C(N)=O)cc2C)cc1`: the inhibition result in test [1], in [2], in test [3], in test [4], in test [5] and in [6] was “Active” each time. Also, the inhibition result in [7], in test [8], in [9], in test [10], in [11] and in [12] was “Active” in each case. Further, in test [13], the inhibition result was “Active”.

Turning to `Cc1cc(C(N)=O)ccc1-c1c(-c2ccc(-n3ccnc3)cc2)ccn1CCC(=O)O`, the inhibition result in test [1], in test [2], in test [3], in test [4], in [5] and in test [6] was “inactive” each time. Further, the inhibition result in test [7], in [9], in [10], in test [11], in test [12] and in test [13] was “inactive” in each case. Also, the inhibition entry in [8] is “Active”.
